Assay results reported in patent US6737383B1, “Herbicidal oxadiazolidines” (priority 1999, dated 2004).

Columns and labels:
bedstraw = experiment: Test B pre/postemergence bedstraw; format: in vivo, Galium aparine
Outline: (§1)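 Response is a visual 0-to-10 score relative to untreated plants, where 0 means no effect and 10 means complete control, taken twelve to sixteen days after application. Treatments went onto soil at planting and onto foliage of 1- to 4-leaf plants, using a surfactant-containing non-phytotoxic solvent.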

rape = experiment: Test B pre/postemergence rape; format: in vivo, Brassica napus
Outline: as §1

duck salad = experiment: Test B flood test duck salad; format: in vivo, Heteranthera limosa
Outline: (§2)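 Flood test on plants grown to the 2-leaf stage; treated plants kept in greenhouse twelve to sixteen days, then visually rated against controls on a 0 (no effect) to 10 (complete control) scale.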

sugar beet = experiment: Test B pre/postemergence sugar beet; format: in vivo, Beta vulgaris; settings: for Plant response rating, Sugarbeets: Rate 250 g/ha
Outline: as §1

wheat = experiment: Test B pre/postemergence wheat; format: in vivo, Triticum aestivum; settings: for Plant response rating, Wheat: Rate 250 g/ha
Outline: as §1

crabgrass = experiment: Test B pre/postemergence crabgrass; format: in vivo, Digitaria sanguinalis
Outline: as §1

blackgrass = experiment: Test B pre/postemergence blackgrass; format: in vivo, Alopecurus myosuroides
Outline: as §1

surinam grass = experiment: Test B pre/postemergence surinam grass; format: in vivo, Brachiaria decumbens
Outline: as §1

wild oat = experiment: Test B pre/postemergence wild oat; format: in vivo, Avena fatua; settings: for Plant response rating, Wild oats: Rate 250 g/ha
Outline: as §1

rice = experiment: Test B flood test rice; format: in vivo, Oryza sativa
Outline: as §2

velvetleaf = experiment: Test B pre/postemergence velvetleaf; format: in vivo, Abutilon theophrasti; settings: for Plant response rating, Velvetleaf: Rate 250 g/ha
Outline: as §1

purple nutsedge = experiment: Test B pre/postemergence purple nutsedge; format: in vivo, Cyperus rotundus
Outline: as §1

soybean = experiment: Test B pre/postemergence soybean; format: in vivo, Glycine max
Outline: as §1

corn = experiment: Test B pre/postemergence corn; format: in vivo, Zea mays
Outline: as §1

pigweed = experiment: Test B pre/postemergence pigweed; format: in vivo, Amaranthus retroflexus
Outline: as §1

smallflower flatsedge = experiment: Test B flood test smallflower flatsedge; format: in vivo, Cyperus difformis
Outline: as §2

[1] = Postemergence, Rate 62 g/ha, scale 0 to 10, 0 is no effect, 10 is complete control
[2] = Preemergence, Rate 31 g/ha, visual rating, scale 0 to 10 (0 no effect, 10 complete control)
[3] = Preemergence, Rate 62 g/ha, scale 0 to 10 (0 no effect, 10 complete control)
[4] = Preemergence, Rate 125 g/ha, scale 0 to 10 (0 no effect, 10 complete control)
[5] = Preemergence, Rate 250 g/ha, scale of 0 to 10 where 0 is no effect and 10 is complete control
[6] = Rate 31 g/ha, Postemergence, scale 0 to 10
[7] = Postemergence, Rate 125 g/ha, scale of 0 to 10 where 0 is no effect and 10 is complete control
[8] = Postemergence, Rate 250 g/ha, scale 0 to 10, 0 no effect, 10 complete control
[9] = Postemergence (flood test species), Rate 125 g/ha, scale of 0 to 10 where 0 is no effect and 10 is complete control
[10] = Rate 31 g/ha, Postemergence section (flood test species), scale 0 to 10
[11] = Preemergence, Rate 125 g/ha, 0 is no effect, 10 is complete control
[12] = Preemergence, scale of 0 to 10 where 0 is no effect and 10 is complete control
[13] = Postemergence, scale 0 to 10, 0 is no effect, 10 is complete control
[14] = Rate 250 g/ha, Postemergence (flood test), scale 0 to 10, 0 is no effect, 10 is complete control
[15] = Rate 250 g/ha, Postemergence, scale 0 to 10, 0 is no effect, 10 is complete control

CC(C)N(C(=O)n1oc(=O)n(-c2cnn(C)c2)c1=O)c1ccc(F)cc1 [Compound 98]
Bedstraw plant response rating (bedstraw; [1]): 0 | Bedstraw plant response rating (bedstraw; [2]): 0 | Bedstraw plant response rating (bedstraw; [3]): 0 | Plant response rating, Bedstraw (bedstraw; [4]): 0 | Plant response rating, Bedstraw (bedstraw; [5]): 0 | Bedstraw plant response rating (bedstraw; [6]): 0 | Rape plant response rating (rape; [1]): 0 | Rape plant response rating (rape; [7]): 0 | Rape plant response rating (rape; [8]): 0 | Rape plant response rating (rape; [2]): 0 | Rape plant response rating (rape; [3]): 0 | Plant response rating, Rape (rape; [4]): 0 | Plant response rating, Rape (rape; [5]): 0 | Rape plant response rating (rape; [6]): 0 | Ducksalad plant response rating (duck salad; [9]): 2 | Ducksalad plant response rating (duck salad; [1]): 0 | Ducksalad plant response rating (duck salad; [10]): 0 | Ducksalad plant response rating (duck salad; flood test, listed under Postemergence, Rate 250 g/ha, scale 0 to 10, 0 no effect, 10 complete control): 3 | Sugarbeets plant response rating (sugar beet; [1]): 0 | Sugarbeets plant response rating (sugar beet; [7]): 0 | Sugarbeets plant response rating (sugar beet; [2]): 0 | Sugarbeets plant response rating (sugar beet; [3]): 0 | Sugarbeets plant response rating (0 to 10 scale) (sugar beet; [11]): 0 | Plant response rating, Sugarbeets (sugar beet; [12]): 3 | Plant response rating, Sugarbeets (sugar beet; [13]): 0 | Wheat plant response rating (wheat; [1]): 0 | Wheat plant response rating (wheat; [7]): 0 | Wheat plant response rating (wheat; [2]): 0 | Wheat plant response rating (wheat; [3]): 0 | Wheat plant response rating (0 to 10 scale) (wheat; [11]): 0 | Plant response rating, Wheat (wheat; [12]): 1 | Plant response rating, Wheat (wheat; [13]): 0 | Crabgrass plant response rating (crabgrass; [1]): 0 | Crabgrass plant response rating (crabgrass; [7]): 0 | Crabgrass plant response rating (crabgrass; [8]): 2 | Crabgrass plant response rating (crabgrass; [2]): 2 | Crabgrass plant response rating (crabgrass; [3]): 4 | Plant response rating, Crabgrass (crabgrass; [4]): 7 | Plant response rating, Crabgrass (crabgrass; [5]): 8 | Crabgrass plant response rating (crabgrass; [6]): 0 | Blackgrass plant response rating (blackgrass; [1]): 0 | Blackgrass plant response rating (blackgrass; [7]): 0 | Blackgrass plant response rating (blackgrass; [8]): 0 | Blackgrass plant response rating (blackgrass; [2]): 0 | Blackgrass plant response rating (blackgrass; [3]): 2 | Plant response rating, Blackgrass (blackgrass; [4]): 6 | Plant response rating, Blackgrass (blackgrass; [5]): 8 | Blackgrass plant response rating (blackgrass; [6]): 0 | B. signalgrass plant response rating (surinam grass; [1]): 0 | B. signalgrass plant response rating (surinam grass; [8]): 0 | B. signalgrass plant response rating (surinam grass; [2]): 0 | B. signalgrass plant response rating (surinam grass; [3]): 0 | Plant response rating, B. signalgrass (surinam grass; [4]): 0 | Plant response rating, B. signalgrass (surinam grass; [5]): 0 | B. signalgrass plant response rating (surinam grass; [6]): 0 | B. signalgrass plant response rating (surinam grass; Rate 125 g/ha, Postemergence, scale 0 to 10, 0 no effect, 10 complete control): 0 | Wild oats plant response rating (wild oat; [1]): 0 | Wild oats plant response rating (wild oat; [7]): 0 | Wild oats plant response rating (wild oat; [2]): 0 | Wild oats plant response rating (wild oat; [3]): 0 | Wild oats plant response rating (0 to 10 scale) (wild oat; [11]): 0 | Plant response rating, Wild oats (wild oat; [12]): 2 | Plant response rating, Wild oats (wild oat; [13]): 0 | Rice plant response rating (rice; [9]): 4 | Rice plant response rating (rice; [1]): 0 | Rice plant response rating (rice; [10]): 0 | Plant response rating, Rice (rice; [14]): 6 | Velvetleaf plant response rating (velvetleaf; [1]): 0 | Velvetleaf plant response rating (velvetleaf; [7]): 0 | Velvetleaf plant response rating (velvetleaf; [2]): 0 | Velvetleaf plant response rating (velvetleaf; [3]): 0 | Velvetleaf plant response rating (0 to 10 scale) (velvetleaf; [11]): 0 | Plant response rating, Velvetleaf (velvetleaf; [12]): 2 | Plant response rating, Velvetleaf (velvetleaf; [13]): 0 | Nutsedge plant response rating (purple nutsedge; [1]): 0 | Nutsedge plant response rating (purple nutsedge; [7]): 0 | Nutsedge plant response rating (purple nutsedge; [8]): 0 | Nutsedge plant response rating (purple nutsedge; [2]): 0 | Nutsedge plant response rating (purple nutsedge; [3]): 0 | Plant response rating, Nutsedge (purple nutsedge; [4]): 0 | Plant response rating, Nutsedge (purple nutsedge; [5]): 0 | Nutsedge plant response rating (purple nutsedge; [6]): 0 | Soybean plant response rating (soybean; [1]): 1 | Soybean plant response rating (soybean; [7]): 1 | Soybean plant response rating (soybean; [2]): 0 | Soybean plant response rating (soybean; [3]): 0 | Plant response rating, Soybean (soybean; [4]): 0 | Plant response rating, Soybean (soybean; [5]): 0 | Plant response rating, Soybean (soybean; [15]): 1 | Corn plant response rating (corn; [1]): 0 | Corn plant response rating (corn; [7]): 0 | Corn plant response rating (corn; [8]): 0 | Corn plant response rating (corn; [2]): 0 | Corn plant response rating (corn; [3]): 0 | Plant response rating, Corn (corn; [4]): 0 | Plant response rating, Corn (corn; [5]): 0 | Corn plant response rating (corn; [6]): 0 | Redroot pigweed plant response rating (pigweed; [1]): 0 | Redroot pigweed plant response rating (pigweed; [7]): 0 | Redroot pigweed plant response rating (pigweed; [2]): 0 | Redroot pigweed plant response rating (pigweed; [3]): 4 | Plant response rating, Redroot pigweed (pigweed; [4]): 4 | Plant response rating, Redroot pigweed (pigweed; [5]): 5 | Redroot pigweed plant response rating (pigweed; [6]): 0 | Plant response rating, Redroot pigweed (pigweed; [15]): 0 | S. Flatsedge plant response rating (smallflower flatsedge; [9]): 8 | S. Flatsedge plant response rating (smallflower flatsedge; [1]): 0 | Plant response rating, S. Flatsedge (smallflower flatsedge; [14]): 8
